Laboratory results from US20060062797A1, “Novel materials and methods for the treatment of Alzheimer's disease patients” (The Research Foundation of State University of New York at …, priority 2004, published 2006).
Read-outs that look alike come from different tables or passages of the source. No end group written: not given here.

Assays:
[1] = biological target: T1, Aβ1-42 peptide (Homo sapiens, UniProt P05067); test: Fluorescence thioflavin T assay of amyloid fibrillization; format: biochemical
T1 sequence (P05067 672-713): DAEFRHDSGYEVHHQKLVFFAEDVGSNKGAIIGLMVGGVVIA
Procedure: Amyloid fibrillization was measured by the fluorescence thioflavin T assay. Levine III, H, Methods in Enzymology 309: 274-305 (1999). The Aβ1-42 peptide was dissolved and fibrillization was followed over the course of two weeks by monitoring thioflavin T fluorescence. Hou et al., J. Am. Chem. Soc. in press (2004).
The effect of the inhibitor plateaus after three days and shown to be 70%±5 % effective in preventing fibrillization.
Inhibition activities were also measured by fluorescence intensity over time at the following molar ratios of Aβ1-42 peptide to SEQ ID NO:1 (I1) 1:0; 1:1; 1:5; and 1:20. (FIG. 7). […] Soto, et al., Nature Medicine 4:822-826 (1998); and Soto et al., Biochem. Biophys. Res. Comm. 226:672-680 (1996).

[2] = biological target: Aβ1-42 protein (SEQ ID NO: 157) (Homo sapiens, UniProt P05067); test: Appearance (clearing, gel formation) of Aβ1-42 suspensions at pH 7; format: biochemical
Chain of Aβ1-42 protein (SEQ ID NO: 157) (P05067 672-713): as above
Procedure: (§1) The amyloid fibril inhibitor protein (SEQ ID NO: 1) was incubated at an equimolar ratio with ^13C-labeled Aβ1-42 peptides. During this incubation, electron microscopic images were taken over the course of two weeks in accordance with Example 6. […] In fact, suspensions of Aβ1-42 protein (SEQ ID NO: 157) prepared at pH 7 were normally cloudy and formed gels during fibril growth.

[3] = biological target: T2, GpA70-86 fibrils (Homo sapiens, UniProt P02724); test: Glycophorin A transmembrane peptide (GpA70-86) fibril formation, solid-state NMR; format: biochemical; details: for ability to inhibit amyloid fibril formation: "this assay system" of Example 2
T2 construct: comprising a 17 amino acid peptide corresponding to amino acid residues 70-86
Procedure: In the experiments below, magic-angle-spinning (MAS) NMR was performed at 360 and 600 MHz on Bruker Avance NMR spectrometers using 4 mm MAS rotors. The cross polarization contact time was 2 ms, two-pulse phase-modulated (TPPM) decoupling was used during the evolution and mixing periods and the dipolar-assisted rotational-resonance (DARR) mixing time was 1 sec. The proton field strength was set to the n =1 rotational resonance condition during the mixing period. Takegoshi et al., “^13C-^1H Dipolar-Driven ^13C-^13C Recoupling Without ^13C RF Irradiation In Nuclear Magnetic Resonance Of Rotating Solids” J. Chem. Phys. 118:2325-2341 (2003). DARR gives rise to off-diagonal cross peaks in the 2D NMR spectra if the ^13C . . . ^13C contacts are less than 6 A apart.
This experiment tested the idea that the large side chain amino acids on one sheet dovetail into the grooves formed by glycine on an opposing β-sheet using a mixture of two differently labeled pools of GpA70-86 peptide. A first set of peptides were labeled with a single ^13C isotope label at the backbone carbonyl carbon of Gly^79. A second set of peptides were ^13C -labeled at the Met^81 methyl side chain group. Computer modeling of the GpA70-86 peptide β-sandwich predicted an inter-β-sheet distance of 3-5 Å between the carbonyl ^13C of Gly^79 and the ^13CH3 of Met^81. The intra-sheet distance, however, was predicted to be ˜8-10 Å, and outside of the detection range of the NMR experiment used. Solid-state NMR techniques measured the intermolecular distance between Met^81 13C-labeled methyl side chains and the carbonyl ^13C-Gly^79 on adjacent β-sheets.
A truncated […], that mimics Aβ1-42 protein, was incubated with a glycine-rich transmembrane peptide (i.e., similar to APP). This target peptide corresponds to glycophorin A's transmembrane domain comprising a 17 amino acid peptide corresponding to amino acid residues 70-86. Glycophorin A, as a complete protein, is not known to form amyloid-like fibrils.

[4] = test system: in vitro neuronal cell culture; test: Neurotoxicity of inhibitor peptides alone in neuronal cell culture (cell count); format: cell-based; details: peptide alone
Procedure: (§2) An in vitro neuronal cell culture was grown to confluence and studied by cell count as a measure of neurotoxicity. Neurotoxicity was observed following one or two days of incubation with either polymerized Aβ1-42 peptide into amyloid fibrils (ag) or free (i.e., non-polymerized) Aβ1-42 peptides (sol). (See FIG. 9).

[5] = as above; format: cell-based; details: neuronal cell culture, 48 Hour Incubation, read-out: % Survival
Procedure: as §2

[6] = biological target: Preformed amyloid fibrils comprising Aβ1-42 peptides (Homo sapiens, UniProt P05067); test: Depolymerization of preformed amyloid fibrils (fluorescence intensity); format: biochemical; details: 1:20 molar ratio; for depolymerization of pre-existing Aβ1-42 fibrils (words): FIG. 8
Chain of Preformed amyloid fibrils comprising Aβ1-42 peptides (P05067 672-713): as above
Procedure: Preformed amyloid fibrils comprising Aβ1-42 peptides were incubated with and without SEQ ID NO: 1 (I1) a 1:20 molar ratio.

[7] = test system: Aβ1-42 peptide induced neurotoxicity in neuronal cell culture; test: Protection against Aβ1-42 peptide induced neurotoxicity in neuronal cell culture; format: cell-based; details: for inhibition of Aβ1-42 peptide induced neurotoxicity: 1:10 and 1:20; for amyloid plaque inhibition activity with protected termini: N- or C-terminal protected or both protected, data not shown; for reduction of Aβ1-42 neurotoxicity: added before Aβ1-42 peptides were allowed to polymerize
Procedure: These peptides were tested in cell toxicity assays for their ability to prevent cell death (i.e., for example, by apoptotic mechanisms) induced by the Aβ1-42 peptide (SEQ ID NO:157).
as §2
(See FIG. 11A). […] (See FIG. 11B).

[8] = biological target: Aβ1-42 peptides (Homo sapiens, UniProt P05067); test: Electron microscopy of Aβ1-42 fibril formation in presence of inhibitor protein; format: biochemical; details: equimolar ratio with 13C-labeled Aβ1-42 peptides; images over two weeks
Chain of Aβ1-42 peptides (P05067 672-713): as above
Procedure: as §1
Fibrillized amyloid samples were prepared by incubation of aqueous solutions at an Aβ1-42 peptide concentration of approximately 0.2 mM in 1.0 mM phosphate buffer at pH 7.0 with the pH adjusted as necessary by dropwise addition of dilute NaOH or acetic acid. 0.01% NaN3 was added to inhibit bacterial and fungal growth. The solution was incubated for approximately 10 days at a temperature of 24° C., with gentle rocking (200 rpm). Aliquots of incubated solutions were taken for electron microscopic observations after 3-5 days. Amyloid fibril formation was verified by electron microscopic images of negatively stained samples.
For electron microscopic analysis, a 5 μL sample of the amyloid fibril was placed on a carbon coated Foamvar 200 mesh copper grid. The sample was allowed to stand for 15-30 sec and any excess solution was removed by wicking away. The samples were negatively stained with 2% (w/v) uranyl acetate. The excess was wicked away and allowed to dry. […]

[9] = biological target: T1, Aβ1-42 peptide; details: Soto et al. 1996, 1998; cited from earlier work
[10] = 24 hours of polymerization / 24 hour incubation, FIG. 10A, 10B

With H-RGTFEGKF-NH2 [SEQ ID NO: 1] as the substance, how does the “inhibition of Aβ1-42 fibrillization / amyloid fibril polymerization (words)” value ([1]; FIG. 6, FIG. 7) read?
The value was “inhibits amyloid fibril polymerization in a time and dose-dependent manner”.

What about the “inhibition of Aβ1-42 fibrillization / amyloid fibril polymerization (words)” value ([1]; FIG. 6, FIG. 7, listed as SEQ ID NO:1) of the same substance?
Its value is “inhibits fibrillization”.

And the “gel formation of Aβ1-42 suspensions” value ([2]; pH 7, over a two week period or longer)?
The value was “did not form gel compositions”.

What about the “time until Aβ1-42 suspensions became clear after addition” value ([2]; suspensions prepared at pH 7) of the same substance?
Its value is “less than 5 seconds”.

And the “glycophorin A transmembrane peptide fibril formation” value ([3]; 1:1 molar ratio)?
The value was “can be blocked”.

What about the “ability to inhibit amyloid fibril formation” value [3] of the same substance?
Its value is “most effective”.

And the “NMR cross peak between Met81 and Gly79 of GpA70-86 fibrils” value ([3]; equimolar amount of inhibitor, FIG. 4D)?
The value was “absent”.

What about the “toxicity of peptide by itself to neuronal cell culture” value (“toxicity of peptide by itself” for short) [4] of the same substance?
The value was “not toxic by themselves”.

And the “toxicity of peptide by itself” value ([4]; listed as I1)?
The value was “not present”.

And the viability at 48 h ([5]; 10X)?
The viability at 48 h was 91.7 ± 5.6%.

What about the viability at 48 h ([5]; 20X) of the same substance?
Its viability at 48 h is 90.5 ± 6.4%.

And the “depolymerization of pre-existing Aβ1-42 fibrils (words)” value [6]?
The value was “depolymerizes pre-existing amyloid fibrils”.

And the “depolymerization of pre-existing Aβ1-42 fibrils (words)” value ([6]; listed as SEQ ID NO:1)?
The value was “depolymerizes Aβ1-42 fibrils”.

And the “depolymerization rate and polymerization rate” value ([6]; after Day 4)?
Its value is “apparently reaches equilibrium”.

And the depolymerization rate ([6]; first four incubation days)?
The depolymerization rate was “apparent linear depolymerization rate”.

And the “inhibition of Aβ1-42 peptide induced neurotoxicity” value [7, 10]?
Its value is “Neither SEQ ID NO: 1 or SEQ ID NO: 160 reduced neurotoxicity”.

And the “inhibition of Aβ1-42 peptide induced neurotoxicity” value ([7]; 24 hours of polymerization / 24 hour incubation, FIG. 10A, 10B, listed as SEQ ID NO:1)?
The value was “does not inhibit”.

What about the “inhibition of Aβ1-42 peptide induced neurotoxicity” value ([7]; 48 hours of polymerization / 48 hour incubation, FIG. 10C, 10D) of the same substance?
Its value is “dose-dependently inhibited neurotoxicity”.

What about the “inhibition of Aβ1-42 peptide induced neurotoxicity” value ([7]; 48 hours of polymerization / 48 hour incubation, FIG. 10C, 10D, listed as SEQ ID NO:1) of the same substance?
Its value is “does inhibit”.

What about the “amyloid plaque inhibition activity with protected termini” value [7] of the same substance?
The value was “retain amyloid plaque inhibition activity”.

What about the “reduction of Aβ1-42 neurotoxicity” value [7] of the same substance?
Its value is “Neither SEQ ID NO: 1 or SEQ ID NO: 160 reduced neurotoxicity”.

And the “fibrils in electron microscopic images” value [8]?
The value was “no detectable fibrils”.

For RATFEAKF-NH2 [SEQ ID NO: 19], which “ability to inhibit amyloid fibril formation” value [3] is on record?
The value was “most effective”.

And the “amyloid plaque inhibition activity with protected termini” value [7]?
The value was “retain amyloid plaque inhibition activity”.

For “H-LPFFD-NH2 [SEQ ID NO: 160, NH2-LPFFD-NH2, reference compound]”, which “toxicity of peptide by itself” value [4] is on record?
The value was “not toxic by themselves”.

And the “toxicity of peptide by itself” value ([4]; listed as I6)?
Its value is “not present”.

What about the viability at 48 h ([5]; 10X) of the same substance?
Its viability at 48 h is 97.9 ± 4.2%.

And the viability at 48 h ([5]; 20X)?
Its viability at 48 h is 97.8 ± 6.6%.

And the “reported inhibitor activity (literature)” value [9]?
The value was “effective inhibitor”.

What about the “inhibition of Aβ1-42 peptide induced neurotoxicity” value [7, 10] of the same substance?
The value was “Neither SEQ ID NO: 1 or SEQ ID NO: 160 reduced neurotoxicity”.

What about the “inhibition of Aβ1-42 peptide induced neurotoxicity” value ([7]; 24 hours of polymerization / 24 hour incubation, FIG. 10A, 10B, listed as SEQ ID NO:160) of the same substance?
The value was “does not inhibit”.

What about the “inhibition of Aβ1-42 peptide induced neurotoxicity” value ([7]; 48 hours of polymerization / 48 hour incubation, FIG. 10C, 10D, listed as SEQ ID NO:160) of the same substance?
The value was “does not inhibit”.

What about the “reduction of Aβ1-42 neurotoxicity” value [7] of the same substance?
Its value is “Neither SEQ ID NO: 1 or SEQ ID NO: 160 reduced neurotoxicity”.
